# Patent publication EP3714904B1, “IMINODIACETIC ACID SUBSTITUTED CYCLODEXTRINS AS POTENTIATORS OF BETA-LACTAM ANTIBIOTICS” (NATIONAL CENTER FOR SCIENTIFIC RESEARCH "DEMOKRITOS" (NCSRD), priority 2019, dated 2020)
# How the values were obtained:
# [1] = test system: NDM producing K. pneumoniae clinical strain LA26; assay: Murine sepsis model: 2-hour intervals treatment scheme; format: in vivo, CD-1 mice; details: for mice protected (survival): intraperitoneal, 140 hours
# Procedure: Example 7. […] The animals were rendered neutropenic (<100 neutrophils/mm^3) by intraperitoneal injection of 150 and 100 mg/kg of cyclophosphamide at day -4 and day -1, respectively, before infection. […] The meropenem/ β-IDACYD combination was administrated in all dosing schemes simultaneously. […] Blood samples were taken 0, 6, 24 hours and 7 days after injection of a single dose of antibiotic (five infected animals for each timepoint) were serially diluted in normal saline (10^-1 to 10^-9) and plated on MH agar plates which were incubated for 16 hours at 37°C for determination of viable organisms. All mice that were alive were euthanised 7 days post infection and spleen and liver were harvested. The organs were placed into 1 mL of normal saline on ice and then homogenised. The organ homogenates were then serially diluted in normal saline (10^-1 to 10^-9) and plated on MH agar for CFU enumeration. Without therapy 90% of mice succumbed to the infection within 24 hours. […] Finally, the bacterial load in the spleen was relieved by 4.2 log10 compared to that of the antibiotic itself. In Fig.6 is shown the bacterial load (CFU/mL) (A) and survival percentage (B) of CD-1 mice infected with a lethal dose (10^7 CFU) of NDM-1 producing K. pneumoniae strain LA26. […] Treatment (initiated at 2 hours post infection) was given every 2h for a 24h period and blood was drawn 0 h, 6 h, 24 h and 140 h post treatment initiation. All groups were of n=10. Spleen and liver (C) from n=5 mice were also removed at 140 h post-treatment initiation the bacterial load [log (CFU/organ)] was determined. Error bars are indicative of SEM (n=2 replicates).
# [2] = test system: NDM-1 producing K. pneumoniae clinical strain LA 26; assay: Murine sepsis model: single dose treatment scheme-1; format: in vivo, CD-1 mice
# Procedure: Example 8. In-vivo murine sepsis model: Single dose treatment scheme-1: Neutropenic 7-8 weeks old CD-1 female mice weighing 29 to 32 grams were infected interperitoneally with a lethal dose (10^7 CFU) of the NDM-1 producing K. pneumoniae clinical strain LA 26 as described previously. […] The meropenem/ β-IDACYD combination was administrated in all dosing schemes simultaneously. Blood samples were taken 0, 6, 24 hours and 3 days after injection of a single dose of antibiotic (five infected animals for each timepoint) and were serially diluted in normal saline (10^-1 to 10^-9) and plated on MH agar plates which were incubated for 16 hours at 37 °C for determination of viable organisms. All mice were euthanised 3 days post infection and spleen and liver were harvested. Organs were placed into 1 mL of normal saline on ice and then homogenised. Organ homogenates were then serially diluted in normal saline (10^-1 to 10^-9) and plated on MH agar plates for CFU enumeration. In the absence of therapy 30% of mice remained alive 70 hours post infection. […] The bacterial burden in the blood 70 hours post treatment was relieved by 4.8log10 in the presence of 120 mg/kg of β-IDACYD compared to that of the antibiotic monotherapy. […] In Fig. 7 is shown the bacterial load (CFU/mL) and survival percentage of CD-1 mice infected with a lethal dose (10^7 CFU) of NDM-1 producing K. pneumoniae strain LA26. […] Treatment was given in a form of a single shot 2h after infection and blood was drawn 0h, 6h, 24h and 70h post treatment initiation. All groups were of n=10. Error bars are indicative of SEM (n=2 replicates).
# [3] = test system: MBL producing clinical strains; assay: MIC potentiation over the whole collection of isolates; format: cell-based; details: 50 µM β-IDACYD
# Procedure: Further the in-vitro inhibitory activity of IDACYDs was tested against highly resistant pathogens. Tables 3, 4 and 5 show the effect of IDACYDs using a collection of 36 highly resistant Gram negative strains (Table 2, Kirby-Bauer disc diffusion method) producing NDM, VIM and IMP type MBLs as well as 6 isolates expressing serine beta-lactamases (ESBLs, AmpCs). […] Clinical isolates co-expressing ESBLs and/or AmpC β-lactamases along with MBLs where re-sensitized to both imipenem and meropenem, as expected. Table 2: Collection of clinical isolates used for in-vitro evaluation
# [4] = test system: NDM, VIM and IMP producing K. pneumoniae clinical isolates; assay: Time kill assays; format: cell-based
# Procedure: In Fig. 3 the results of the time-kill assays are shown. […] Results are expressed as log10 CFU/mL. Experiments were performed in duplicate. Antibiotic-free control cultures were included in each set of experiments as controls. Error bars are indicative of standard error mean (SEM) (n=2 replicates).
# [5] = format: in vivo; details: dosing schemes up to 500 mg/kg
# Procedure: The acute in-vivo toxicity of β-IDACYD was also determined to provide range-finding doses to be used in in-vivo studies and possibly implicate target organs for toxicity.
# [6] = Plasma levels of metal ions, creatinine and urea in infected mice; format: in vivo, CD-1 mice; details: 30 mg/kg meropenem + 20 mg/kg β-IDACYD every 2 h for 24 h, 0 h, 6 h, 140 h
# Procedure: Example 10. Examination of the cross-reactivity of β-IDACYD with vital metal ions in mouse plasma and of induction of immune responses in infected mice: In order to examine a potential cross-reactivity of the β-IDACYD with metal ions necessary for the maintenance of homeostasis, plasma was isolated by centrifugation (3,000 rpm, 5 min) from all blood samples collected. The plasma levels of four metal ions (calcium, magnesium, phosphate and iron) as well as the levels of creatinine and urea were determined using an Olympus AU 600 analyser. […] In Fig. 8 is shown the plasma concentration in mg/dL of calcium, iron, phosphate and magnesium ions, as well as urea and creatinine derived from CD-1 mice infected with a lethal dose (10^7 CFU) of NDM-1 producing K. pneumoniae strain LA26. […] Treatment was given every 2h for a 24h period and blood was drawn and plasma was isolated at time points 0h, 6h, 24h and 140h (7d) post treatment initiation.
# [7] = Luminex assay of lymphokines, cytokines and pro-inflammatory proteins in plasma of infected mice; format: in vivo; details: plasma from all the sepsis therapeutic schemes
# Excerpt: As a way to further measure and evaluate the in-vivo potency and safety of β-IDACYD, we determined the levels of a series of lymphokines, cytokines, and pro-inflammatory indicator proteins. The levels of Th17 immune response related ILs 17E, 6, 1β, 4, 21, 10, 17A, 17F, IFN-g, MIP-3a, TNF-a and TNF-b were all determined in a luminex assay using plasma isolated from the mice involved in all the sepsis therapeutic schemes. […] The observation was supported by the levels of the inflammatory response proteins CRP and SAP.
# [8] = test system: L929 fibroblast cells
# [9] = single dose 30 mg/kg meropenem + 120 mg/kg β-IDACYD
Compound,mice protected (survival) ([1]; meropenem monotherapy 30 mg/kg every 2 h for 24 h) [%],"survival ([2]; meropenem monotherapy, single dose 30 mg/kg, 70 hours post infection) [%]",reduction of meropenem's and imipenem's minimum inhibitory concentration (MIC) [3],"reduction of the bacterial load (CFU/mL) compared to that of the antibiotic alone ([4]; 50 µM β-IDACYD with meropenem or imipenem at MIC or 2xMIC, 24 hour incubation, strains LA26, LA 109/16, 5742) [log10]",bacterial load in time-kill assay ([4]; β-IDACYD 50 µM added to MIC or 2xMIC meropenem or imipenem),acute in-vivo toxicity [5],mice protected (survival) ([1]; 30 mg/kg meropenem + 20 mg/kg β-IDACYD every 2 h for 24 h) [%],"reduction of the bacterial load in the spleen compared to the antibiotic itself ([1]; 30 mg/kg meropenem + 20 mg/kg β-IDACYD every 2 h for 24 h, 140 h) [log10]","reduction of the bacterial load in blood compared to meropenem monotherapy ([1]; 30 mg/kg meropenem + 20 mg/kg β-IDACYD every 2 h for 24 h, 140 hours post treatment initiation) [log10]","reduction of bacterial load in the liver [2, 9] [log10]","reduction of bacterial load in the spleen [2, 9] [log10]","mice rescued (survival) ([2]; single dose 30 mg/kg meropenem + 120 mg/kg β-IDACYD, 70 hours) [%]","reduction of bacterial burden in the blood compared to antibiotic monotherapy ([2]; single dose 30 mg/kg meropenem + 120 mg/kg β-IDACYD, 70 hours post treatment) [log10]","plasma levels of calcium, magnesium, phosphate, iron, creatinine and urea [6]","immune response (Th17 related ILs, IFN-g, MIP-3a, TNF-a, TNF-b; CRP, SAP) [7]",cell morphology under a microscope [8]
"C[C@@H](O)[C@H]1C(=O)N2C(C(=O)O)=C(S[C@@H]3CN[C@H](C(=O)N(C)C)C3)[C@H](C)[C@H]12 [Meropenem, reference compound]",80,30,–,–,–,–,–,–,–,–,–,–,–,–,–,–
CO[C@@H]1[C@@H](OC)[C@H]2O[C@H]3[C@H](OC)[C@@H](OC)[C@@H](O[C@H]4[C@H](OC)[C@@H](OC)[C@@H](O[C@H]5[C@H](OC)[C@@H](OC)[C@@H](O[C@H]6[C@H](OC)[C@@H](OC)[C@@H](O[C@H]7[C@H](OC)[C@@H](OC)[C@@H](O[C@H]8[C@H](OC)[C@@H](OC)[C@@H](O[C@@H]1[C@@H](CN(CC(=O)O)CC(=O)O)O2)O[C@@H]8CN(CC(=O)O)CC(=O)O)O[C@@H]7CN(CC(=O)O)CC(=O)O)O[C@@H]6CN(CC(=O)O)CC(=O)O)O[C@@H]5CN(CC(=O)O)CC(=O)O)O[C@@H]4CN(CC(=O)O)CC(=O)O)O[C@@H]3CN(CC(=O)O)CC(=O)O [β-IDACYD],–,–,up to 256 fold,> 8,bacterial load remains close to zero,no deaths and no signs indicative of acute toxicity,90,4.2,4.0,1.4,3.8,60,4.8,well within the control group range at all times,at no times induced an immune response,did not present any morphological differences characteristic of cytotoxicity
